Assay results from US11192891B2, “Diazaspiro ROCK inhibitors” (BRISTOL-MYERS SQUIBB COMPANY, priority 2017, dated 2021).

How the values were obtained:
Dahl salt-sensitive rats = conditions: cited from earlier work
neointimal formation = conditions: rats; cited from earlier work
[1] = system: rat models of hypertension; conditions: cited from earlier work
[2] = system: IL-1 beta-induced coronary stenosis; conditions: long term treatment, porcine model; cited from earlier work
rat stroke model = conditions: cited from earlier work
ROCK2 = ROCK2 (Homo sapiens, UniProt O75116); assay: ROCK kinase inhibition assay, FITC peptide substrate, LABCHIP 3000 readout; type: biochemical; conditions: 5 μM ATP, 1.5 μM peptide substrate
In short: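 Rho kinase variants started the reaction with compound present (DMSO <2%); after incubation, EDTA stop, and phosphorylated and non-phosphorylated peptide separated by microfluidic electrophoresis. Dose-response format, inhibition calculated at each concentration.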

Sequence of ROCK2 (O75116 whole entry, species assumed): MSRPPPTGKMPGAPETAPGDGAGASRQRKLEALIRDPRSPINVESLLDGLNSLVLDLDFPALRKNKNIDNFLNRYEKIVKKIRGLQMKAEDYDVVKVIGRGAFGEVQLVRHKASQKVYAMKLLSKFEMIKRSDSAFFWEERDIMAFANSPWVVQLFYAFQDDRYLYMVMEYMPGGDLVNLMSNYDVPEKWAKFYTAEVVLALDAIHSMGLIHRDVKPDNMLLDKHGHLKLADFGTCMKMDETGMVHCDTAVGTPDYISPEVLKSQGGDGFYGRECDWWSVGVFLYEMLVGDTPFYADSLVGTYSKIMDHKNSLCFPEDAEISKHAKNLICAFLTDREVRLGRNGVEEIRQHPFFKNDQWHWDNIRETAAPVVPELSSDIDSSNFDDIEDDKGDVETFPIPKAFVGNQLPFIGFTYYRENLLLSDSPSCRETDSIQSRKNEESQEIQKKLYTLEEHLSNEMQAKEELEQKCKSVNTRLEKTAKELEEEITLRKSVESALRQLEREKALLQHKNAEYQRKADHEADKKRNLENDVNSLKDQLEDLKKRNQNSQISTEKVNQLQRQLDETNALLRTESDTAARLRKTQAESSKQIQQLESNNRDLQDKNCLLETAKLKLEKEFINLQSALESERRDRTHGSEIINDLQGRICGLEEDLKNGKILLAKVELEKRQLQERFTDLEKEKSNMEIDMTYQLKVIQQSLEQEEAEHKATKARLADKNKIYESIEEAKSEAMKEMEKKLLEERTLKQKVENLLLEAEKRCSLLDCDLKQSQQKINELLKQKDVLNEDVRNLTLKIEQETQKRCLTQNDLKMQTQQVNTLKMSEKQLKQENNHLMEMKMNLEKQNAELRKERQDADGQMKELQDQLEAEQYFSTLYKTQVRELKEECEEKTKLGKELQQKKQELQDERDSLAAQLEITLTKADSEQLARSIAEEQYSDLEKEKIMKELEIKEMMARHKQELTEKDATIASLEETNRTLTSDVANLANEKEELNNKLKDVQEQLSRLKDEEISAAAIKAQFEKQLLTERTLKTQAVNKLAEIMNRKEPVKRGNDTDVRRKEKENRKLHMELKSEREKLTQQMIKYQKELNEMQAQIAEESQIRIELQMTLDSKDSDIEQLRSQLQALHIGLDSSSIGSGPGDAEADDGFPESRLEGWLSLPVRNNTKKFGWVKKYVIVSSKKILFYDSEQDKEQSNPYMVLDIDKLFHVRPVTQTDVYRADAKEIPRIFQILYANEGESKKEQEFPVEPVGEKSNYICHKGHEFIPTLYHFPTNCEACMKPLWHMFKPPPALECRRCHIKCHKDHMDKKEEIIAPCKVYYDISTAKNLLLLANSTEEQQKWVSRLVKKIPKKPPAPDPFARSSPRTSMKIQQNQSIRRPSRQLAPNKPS

C[C@@H](N)[C@H]1CC[C@H](C(=O)Nc2ccncc2)CC1 [Example Y-27632]
ventricular hypertrophy, fibrosis and function (Dahl salt-sensitive rats): improve ventricular hypertrophy, fibrosis and function
neointimal formation (neointimal formation): inhibited neointimal formation
effect on blood pressure in control rats ([1]; control rats): only a minor effect on blood pressure
effect on blood pressure in hypertensive rats ([1]; spontaneously hypertensive, renal hypertensive and deoxycortisone acetate salt hypertensive rat models): significantly decrease blood pressure

O=S(=O)(c1cccc2cnccc12)N1CCCNCC1 [fasudil]
coronary constrictive remodeling [2]: promote a regression of coronary constrictive remodeling
coronary stenosis [2]: progressively reduce coronary stenosis
infarct size and neurologic deficit (rat stroke model): reduce both the infarct size and neurologic deficit

COc1cc(N2CCC3(CCN(C(=O)c4ccc(CO)cc4)CC3)C2=O)ccc1-c1cn[nH]c1 [Example 15, 8-[4-(hydroxymethyl)benzoyl]-2-[3-methoxy-4-(1H-pyrazol-4-yl)phenyl]-2,8-diazaspiro[4.5]decan-1-one]
IC50 (ROCK2): 53 nM

COc1cc(N2CCC3(CCN(C(=O)c4ccc5c(c4)nnn5C)CC3)C2=O)ccc1-c1cn[nH]c1 [Example 196, 2-[3-methoxy-4-(1H-pyrazol-4-yl)phenyl]-8-(1-methyl-1H-1,2,3-benzotriazole-5-carbonyl)-2,8-diazaspiro[4.5]decan-1-one]
IC50 (ROCK2): 9.1 nM

CCc1ccc(C(=O)N2CCC3(CC2)CCN(c2ccc(-c4cn[nH]c4)c(OC)c2)C3=O)nc1 [Example 108, 8-(5-ethylpyridine-2-carbonyl)-2-[3-methoxy-4-(1H-pyrazol-4-yl)phenyl]-2,8-diazaspiro[4.5]decan-1-one]
IC50 (ROCK2): 12 nM

COc1cc(N2CCC3(CCN(C(=O)c4ccc(C)nc4)CC3)C2=O)ccc1-c1cn[nH]c1 [Example 72, 2-[3-methoxy-4-(1H-pyrazol-4-yl)phenyl]-8-(6-methylpyridine-3-carbonyl)-2,8-diazaspiro[4.5]decan-1-one]
IC50 (ROCK2): 219 nM

COc1ccc(C(=O)N2CCC3(CC2)CCN(c2ccc(-c4cn[nH]c4)cc2)C3=O)cc1F [Example 11, 8-(3-fluoro-4-methoxybenzoyl)-2-[4-(1H-pyrazol-4-yl)phenyl]-2,8-diazaspiro[4.5]decan-1-one]
EC50 (ROCK2): 16 nM

COc1cc(N2CCC3(CCN(C(=O)c4ccc(CN5CCCC5)cc4)CC3)C2=O)ccc1-c1cn[nH]c1 [Example 168, 2-[3-methoxy-4-(1H-pyrazol-4-yl)phenyl]-8-{4-[(pyrrolidin-1-yl)methyl]benzoyl}-2,8-diazaspiro[4.5]decan-1-one]
IC50 (ROCK2): 17 nM

COc1ccc2cc(C(=O)N3CCC4(CC3)CCN(c3ccc(-c5cn[nH]c5)c(OC)c3)C4=O)n(C)c2c1 [Example 170, 8-(6-methoxy-1-methyl-1H-indole-2-carbonyl)-2-[3-methoxy-4-(1H-pyrazol-4-yl)phenyl]-2,8-diazaspiro[4.5]decan-1-one]
IC50 (ROCK2): 118 nM

COc1cc(N2CCC3(CCN(C(=O)c4ccc(N5CCCC5=O)cc4)CC3)C2=O)ccc1-c1cn[nH]c1 [Example 128, 2-[3-methoxy-4-(1H-pyrazol-4-yl)phenyl]-8-[4-(2-oxopyrrolidin-1-yl)benzoyl]-2,8-diazaspiro[4.5]decan-1-one]
IC50 (ROCK2): 13 nM

O=C(c1ccccc1)N1CCC2(CC1)CCN(c1ccc(-c3cn[nH]c3)cc1)C2=O [Example 1, 8-benzoyl-2-[4-(1H-pyrazol-4-yl)phenyl]-2,8-diazaspiro[4.5]decan-1-one]
IC50 (ROCK2): 326 nM

COc1cc(N2CCC3(CCN(C(=O)C4CCN(c5ccncc5)CC4)CC3)C2=O)ccc1-c1cn[nH]c1 [Example 175, 2-[3-methoxy-4-(1H-pyrazol-4-yl)phenyl]-8-[1-(pyridin-4-yl)piperidine-4-carbonyl]-2,8-diazaspiro[4.5]decan-1-one]
IC50 (ROCK2): 195 nM

COc1cc(N2CCC3(CCN(C(=O)c4ccc(N5CCCCS5(=O)=O)cc4)CC3)C2=O)ccc1-c1cn[nH]c1 [Example 192, 8-(4-(1,1-dioxido-1,2-thiazinan-2-yl)benzoyl)-2-(3-methoxy-4-(1H-pyrazol-4-yl)phenyl)-2,8-diazaspiro[4.5]decan-1-one]
IC50 (ROCK2): 3.3 nM

COc1cc(N2CCC3(CCN(C(=O)c4ccc5cc6n(c5c4)C(C)CNC6=O)CC3)C2=O)ccc1-c1cn[nH]c1 (stereo not shown) [Example 150, 2-[3-methoxy-4-(1H-pyrazol-4-yl)phenyl]-8-{4-methyl-1-oxo-1H,2H,3H,4H-pyrazino[1,2-a]indole-7-carbonyl}-2,8-diazaspiro[4.5]decan-1-one]
IC50 (ROCK2): 144 nM
